This assay addresses T1, elastase from porcine pancreas (EC 3.4.21.36) (Sus scrofa, UniProt P00772).
T1 construct: gene CELA1; commercial native enzyme from porcine pancreas (Sigma-Aldrich), mature; docking model PDB 1BRU (elastase 2) is not the assay sample
The assay is described as follows: N-succinyl-Ala-Ala-Ala-p-nitroanilide hydrolysis, absorbance at […] nm. It is filed as biochemical.

T1 sequence (P00772 27-266): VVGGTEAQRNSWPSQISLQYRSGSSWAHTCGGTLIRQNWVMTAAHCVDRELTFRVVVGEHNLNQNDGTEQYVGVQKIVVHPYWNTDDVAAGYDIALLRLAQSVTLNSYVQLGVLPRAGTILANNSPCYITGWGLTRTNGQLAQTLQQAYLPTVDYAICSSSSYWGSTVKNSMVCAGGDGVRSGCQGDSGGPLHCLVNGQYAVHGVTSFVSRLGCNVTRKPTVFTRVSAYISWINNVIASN

In turn, `Oc1cc(O)c2c(c1)OC(c1ccc(O)c(O)c1)C(O)C2` (racemic) [catechin] had an IC50 of 18.4 µM.
